Results on four molecules are retold here after article PMC8268575 (International Journal of Molecular Sciences, 2021).

One data set deals with HUVEC. Briefly: Substrate cleavage in HUVEC, supernatant analysed by MALDI-TOF/TOF. The note with it: PRCP-inhibited (1 µM compound 8o) or PRCP/ACE2-inhibited HUVEC compared with control or ACE2-inhibited (1 µM DX600) HUVEC, 100 µM (pyr)-apelin-13, n = 4. Type of data set: in vitro ADME, human. The method, then: (§1) The experiment was independently conducted 4 times. […] The supernatants were desalted and concentrated by use of C18 ZipTips (Merck-Millipore, Burlington, MA, USA) and eluted directly on the MALDI target in 70% acetonitrile/0.1% TFA. Subsequently, a MALDI matrix solution of 2.5 mg/mL α-cyano-4-hydroxycinnamic acid in 70% acetonitrile/0.1% TFA was applied on each spot, air-dried at room temperature, and the target was introduced into a 4800 plus MALDI TOF/TOF^TM Analyzer. Mass spectrometry (MS) spectra (mass range: 600–4000 Da) were acquired in positive reflector mode with a laser intensity of 5000. To confirm the identity of the most important peptides, MS/MS spectra were generated by use of collision induced dissociation with a laser intensity of 5500. Calibration was done during analysis using the 6-peptide mixture (AB Sciex, Framingham, MA, USA). Mass spectra were generated by use of the 4000 Series Explorer and analyzed by mMas. […] The ratio of the peak intensity of the cleaved substrate to the peak intensity of the intact substrate is an indication for the C-terminal cleavage of the substrates. To check for additional cleavage sites, a search for other product peaks was completed. Statistical analysis was performed using SPSS software version 27 (IBM). Two-way ANOVA analysis was conducted to examine the effect of the two independent variables (treatment duration and treatment option) on the ratio of the peak intensities.

A further data set concerns HAoEC. In words: Substrate cleavage in HAoEC, supernatant analysed by MALDI-TOF/TOF. The note with it: all inhibitor-treated HAoEC (1 µM compound 8o, 1 µM DX600 or both) compared with control, 100 µM (pyr)-apelin-13, n = 4. Type of data set: in vitro ADME, human. The method, then: as §1
A further data set has as its target T1, recombinant human PREP (Homo sapiens, UniProt P48147).
T1 sequence (P48147 1-710): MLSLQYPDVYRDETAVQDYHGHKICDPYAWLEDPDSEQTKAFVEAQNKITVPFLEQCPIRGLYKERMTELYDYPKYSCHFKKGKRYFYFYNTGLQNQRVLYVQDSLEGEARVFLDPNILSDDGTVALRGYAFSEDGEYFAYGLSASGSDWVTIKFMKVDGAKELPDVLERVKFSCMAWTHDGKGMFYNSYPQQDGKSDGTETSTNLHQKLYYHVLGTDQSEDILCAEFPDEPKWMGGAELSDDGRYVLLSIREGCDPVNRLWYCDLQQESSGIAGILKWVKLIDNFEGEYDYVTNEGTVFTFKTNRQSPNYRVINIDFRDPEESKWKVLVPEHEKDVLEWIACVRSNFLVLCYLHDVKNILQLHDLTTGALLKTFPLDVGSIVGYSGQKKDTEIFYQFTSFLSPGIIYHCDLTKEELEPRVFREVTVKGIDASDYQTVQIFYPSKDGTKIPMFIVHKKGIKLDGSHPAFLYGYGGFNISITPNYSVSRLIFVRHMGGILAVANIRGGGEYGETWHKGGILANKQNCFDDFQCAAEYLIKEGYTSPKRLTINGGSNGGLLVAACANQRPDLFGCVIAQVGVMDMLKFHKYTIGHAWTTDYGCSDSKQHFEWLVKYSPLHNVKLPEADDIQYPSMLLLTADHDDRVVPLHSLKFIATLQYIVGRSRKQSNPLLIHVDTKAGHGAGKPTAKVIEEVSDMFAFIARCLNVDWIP
Briefly: Cleavage by recombinant PREP, MALDI-TOF/TOF. The note with it: pH 7.4 (0.1 M potassium phosphate, 1 mM EDTA, 5 mM DTT), 100 µM substrate, 0 s to 1 h. The method, then: Supplementary Material File S3. Cleavage by recombinant PREP
Recombinant human PREP, expressed in BL21 (DE3) cells as previously described, was […]
(Laboratory for Medicinal Chemistry, University of Antwerp) or vehicle control at pH 7.4 (0.1 M potassium phosphate, 1 mM EDTA and 5 mM DTT). 100 μM substrate ((pyr)-apelin-13, (pyr)-apelin-13(1-12), Ang II or α-MSH 1-13) or vehicle control (PBS) was added. The reaction was stopped by acidification (pH<3) with 0.1% TFA after different time periods (0 s, 30 s, 1 min, 5 min, 15 min, 30 min or 1 h) and samples were stored at -80 °C.
A search for product peaks of the different peptides was conducted.
1. Van Elzen, R.; Schoenmakers, E.; Brandt, I.; Van Der Veken, P.; Lambeir, A.M.
Ligand-induced conformational changes in prolyl oligopeptidase: A kinetic approach.

Data set [1] is described as follows: HAoEC, 10,000 cells per well, in assay medium; supernatant analysed. The following applies: human, 37 °C, up to 24 h.
A short description of data set [2]: HUVEC, 10,000 cells per well, in assay medium; supernatant analysed. The note with it: human, 37 °C, up to 24 h.
For data set [3], the system named is PRCP. Briefly: PRCP activity (RP-HPLC, Z-Pro-Phe) after pro-inflammatory stimulation of HUVEC. Type of data set: cell-based, human. The note with it: 16 h, 200 ng/mL LPS, 10 ng/mL TNFα or 5 ng/mL IL-1β; for PRCP activity in the cell lysate versus vehicle control: Kruskal-Wallis p = 0.066; for PRCP activity in the supernatant versus vehicle control: n = 4–6. The method, then:
(§2) HUVEC and HAoEC were seeded in a 6-well plate at a density of 2.5 × 10^5 cells per well in 2 mL full medium for 24 h. Subsequently, cells were treated with 200 ng/mL LPS, 10 ng/mL TNFα, 5 ng/mL IL-1β, or vehicle control for 16 h. Subsequently, supernatants were collected and concentrated four times for PRCP activity measurements using Centriprep® Centrifugal Filter Devices, 30 K (Merck-Millipore, Burlington, MA, USA). For PRCP activity measurement, cells were collected per well and lysed 1 h on ice in 75 µL lysis buffer (1% octylglucoside, 10 mM EDTA, 70 µg/mL aprotinin, 50 mM Tris pH 8.3). Appropriate stimulation was confirmed by determining interleukin-6 (IL-6) and interleukin-8 (IL-8) levels in the 16 h aspirate by use of ELISA (Supplementary Materials File S7).
(§3) PRCP activity was measured in the cellular supernatant and cell lysate using a validated high-performance liquid chromatography (HPLC) method as described previously. Ten µL of each sample was incubated in duplicate with 75 µL 8 mM Z-Pro-Phe at pH 5 (0.1 M Natrium Acetate, 10 mM EDTA) for 2 h at 37 °C. To stop the enzymatic reaction, 75 µL stop solution (10% perchloric acid and 20% acetonitrile in purified water) was added and samples were centrifuged at 12,000× g for 10 min at 4 °C. Ten µL of the supernatant was injected into a reversed phase HPLC system (Shimadzu, Kioto, Japan) and the enzymatically formed Z-Pro was determined by its UV absorbance at 210 nm. Quantification was performed by peak height measurements. The PRCP activity is expressed as units per gram (U/g) protein for the cell lysate or units per liter (U/L) for the supernatant. One unit defines the amount of enzyme that hydrolyses 1 μmol of substrate per minute. Protein concentrations were determined via the Bradford method with bovine serum albumin as the standard protein. Statistical analyses were performed using SPSS software version 27 (IBM) and graphs were designed using Graphpad Prism 9 software. Differences in PRCP activity in the cell lysate and supernatant between control and stimulated cells were evaluated by Kruskal-Wallis and Mann-Whitney U-tests. Manual Bonferroni-correction was assessed for multiple testing based on relevant pairwise comparisons. Significant results are indicated with an asterisk (* p < 0.05, ** p < 0.01).

Data set [4] deals with PRCP. Briefly: PRCP activity (RP-HPLC, Z-Pro-Phe) after pro-inflammatory stimulation of HAoEC. In kind it is cell-based, human. The note with it: 16 h, 200 ng/mL LPS, 10 ng/mL TNFα or 5 ng/mL IL-1β; for PRCP activity in the cell lysate versus vehicle control: Kruskal-Wallis p = 0.563; for PRCP activity in the supernatant versus vehicle control: n = 4–6. The method, then: as §2, §3

Data set [5] has as its system ACE2. In words: ACE2 activity (Mca-Ala-Pro-Lys(Dnp)-OH) after pro-inflammatory stimulation of HUVEC. In kind it is cell-based, human. The note with it: 16 h, 200 ng/mL LPS, 10 ng/mL TNFα or 5 ng/mL IL-1β, n = 4-6, p = 0.098. The method, then:
(§4) Supplementary Material File S2. ACE2 activity measurement
(§5) HUVEC and HAoEC were seeded in a 6-well plate at a density of 2.5x10^5 cells per well in 2 mL full medium for 24 h. Cells were treated with 200 ng/mL LPS, 10 ng/mL TNFα, 5 ng/mL IL-1β or vehicle control for 16 h. Supernatants were collected and concentrated four times using Centriprep Centrifugal Filter Devices, 30 K (Merck-Millipore). Cells were collected per well and lysed 1 h on ice in 75 µL lysis buffer (1% octyl glucoside, 10 mM EDTA, 70 µg/mL aprotinin, 50 mM Tris pH 8.3).
(§6) ACE2 activity was measured using the substrate Mca-Ala-Pro-Lys(Dnp)-OH (Bachem).
(§7) Samples were incubated with 100 µM of the substrate at pH 6.5 (50 mM MES, 300 mM NaCl, 10 µM Zn Cl2, 0.01% Triton X-100) in a black 96-well plate and ACE2 activity was measured kinetically for 1 h at 37 °C (λex=320 nm, λem=405 nm), using the Infinite 200 microplate reader (Tecan) and the Magellan software was used to process the data. Concentration of the generated Mca-Ala-Pro was determined by means of a standard curve. Specificity was determined by pre-incubating the samples for 15 min with 1 µM of the specific ACE2-inhibitor DX600. The ACE2 activity is expressed as units per gram (U/g) protein for the cell lysate. […] Protein concentrations were determined via the Bradford method with BSA as the standard protein. […]

For data set [6], the system named is ACE2. Briefly: ACE2 activity (Mca-Ala-Pro-Lys(Dnp)-OH) after pro-inflammatory stimulation of HAoEC. In kind it is cell-based, human. The following applies: 16 h, 200 ng/mL LPS, 10 ng/mL TNFα or 5 ng/mL IL-1β, n = 4-6, p = 0.422. The method, then:
as §4, §5, §6, §7

Regarding `CSCC[C@H](NC(=O)[C@@H]1CCCN1C(=O)CNC(=O)[C@H](CCCCN)NC(=O)[C@H](Cc1c[nH]cn1)NC(=O)[C@H](CO)NC(=O)[C@H](CC(C)C)NC(=O)[C@H](CCCNC(=N)N)NC(=O)[C@@H]1CCCN1C(=O)[C@H](CCCNC(=N)N)NC(=O)[C@@H]1CCC(=O)N1)C(=O)N1CCC[C@H]1C(=O)O` [(pyr)-apelin-13(1–12)], the “(pyr)-apelin-13(1–12) detected in supernatant after 24 h” value in the data set on HUVEC is “Significantly less”. For the same molecule, the “(pyr)-apelin-13(1–12) observed in supernatant after 24 h” value in the data set with HAoEC is listed as “significantly less”. Further, the “Cleavage by recombinant human PREP” value on recombinant human PREP is “did not cleave”.

Take Ac-SYSMEHFRWGKPV-NH₂: in data set [1], the cleaved bond result is “P12-V13” and the fragment found entry was “α-MSH 1-10”. Moreover, in data set [2], the cleaved bond entry is listed as “P12-V13” and the fragment found entry is listed as “α-MSH 1-10”.

Regarding “IL-1β: pro-inflammatory stimulus, 5 ng/mL”, the “PRCP activity in the cell lysate versus vehicle control” value in the data set on PRCP [3] and with PRCP [4] was “no difference” throughout. The “PRCP activity in the supernatant versus vehicle control” value with PRCP [3] and in the data set on PRCP [4] was “increase in PRCP activity” in each case. For the same molecule, the “ACE2 activity in the cell lysate versus vehicle control” value in the data set on ACE2 [5] and with ACE2 [6] was “No difference” each time.

Turning to TNFα, the “PRCP activity in the cell lysate versus vehicle control” value with PRCP [3] and in the data set on PRCP [4] was “no difference” in each case. The “PRCP activity in the supernatant versus vehicle control” value with PRCP [3] and in the data set with PRCP [4] was “increase in PRCP activity” throughout. Moreover, the “ACE2 activity in the cell lysate versus vehicle control” value in the data set on ACE2 [5] and with ACE2 [6] was “No difference” each time.
